Test results from patent publication US10517889B2, “Modulators of SMAD7 expression” (Ionis Pharmaceuticals, Inc., priority 2017, dated 2019).
Strand notation (5' to 3'): a small letter for the sugar, then the base; units joined by * are phosphorothioate-linked, units joined directly phosphodiester-linked; [ ] holds rarer units or linkages, { } end groups; capitals alone tell only the bases. e = 2'-O-(2-methoxyethyl) (MOE); [5mC] = 5-methylcytosine; d = 2'-deoxy (DNA)

Columns and labels:
[1] = tested on: human SMAD7 mRNA; experiment: Dose-dependent inhibition of human SMAD7 mRNA expression in Hep3B cells (Example 3, Study 1 and 2); type: cell-based; conditions: electroporation; for % inhibition of SMAD7 mRNA expression: approximately 16 hours; for IC50: Study 1 (312.5-20000 nM)
How it was run: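 Hep3B cells, 20,000 per well, electroporated with antisense oligonucleotide at 0.31, 1.25, 5.00 or 20.00 μM (first series) or 0.74, 2.22, 6.67 or 20.00 μM (second series). After ~16 h, SMAD7 mRNA measured by RT-qPCR (RTS5062), normalised to RIBOGREEN total RNA. Percent inhibition vs untreated cells; IC50 derived.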

[2] = tested on: human SMAD7 mRNA; experiment: Antisense inhibition of human SMAD7 mRNA expression in Hep3B cells by 5-10-5 MOE gapmers, single concentration, electroporation, RT-PCR (Example 1, Study 1 and 2); type: cell-based; conditions: for % Inhibition: Study 2, electroporation with 15,000 nM antisense oligonucleotide
How it was run: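 Readout is percent SMAD7 mRNA inhibition versus untreated cells, measured by qRT-PCR (RTS5062) and corrected for total RNA by RIBOGREEN. Oligonucleotide, 5,000 nM or 15,000 nM, was delivered by electroporation into Hep3B cells at 20,000 per well. RNA was collected about 24 h later.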

[3] = 312.5 nM, Study 1, relative to untreated control cells
[4] = 5-10-5 MOE gapmers targeting SEQ ID NO: 1 and 2
[5] = electroporation, 5,000 nM, approximately 24 hours, relative to untreated control cells, gapmers targeting SEQ ID NO: 1 and 2
[6] = electroporation, 15,000 nM, approximately 24 hours, relative to untreated control cells, gapmers targeting SEQ ID NO: 1 and 2
[7] = electroporation, 15,000 nM antisense oligonucleotide (Study 2), 5-10-5 MOE gapmers targeting SEQ ID NO: 1 and 2

Substance | % inhibition of SMAD7 mRNA expression [1, 3] [%] | % inhibition of SMAD7 mRNA expression ([1]; 1250.0 nM, Study 1) [%] | % inhibition of SMAD7 mRNA expression ([1]; 5000.0 nM, Study 1) [%] | % inhibition of SMAD7 mRNA expression ([1]; 20000.0 nM, Study 1) [%] | IC50 [1] [µM] | % Inhibition [2, 4] [%] | % inhibition of SMAD7 mRNA expression [2, 5] [%] | % inhibition of SMAD7 mRNA expression [2, 6] [%] | % Inhibition of SMAD7 mRNA ([2]; electroporation with 15,000 nM antisense oligonucleotide (Study 2), 5-10-5 MOE gapmers targeting SEQ ID NO: 1 and 2) [%] | % inhibition of SMAD7 mRNA expression [2, 7] [%]
771795 (antisense e[5mC]*eG*eT*e[5mC]*eT*dG*d[5mC]*dG*dG*d[5mC]*dA*dA*dA*dA*d[5mC]*e[5mC]*e[5mC]*eA*e[5mC]*e[5mC]) [compound 771795] | 9 | 22 | 51 | 58 | 8 | 59 | 53 |  |  | 
771797 (antisense eG*e[5mC]*eA*e[5mC]*eA*dG*dA*d[5mC]*dT*dG*d[5mC]*d[5mC]*dA*dA*dA*eT*e[5mC]*eA*e[5mC]*eA) [compound 771797] | 1 | 0 | 15 | 35 | > 20 |  |  | 62 |  | 
771799 (antisense e[5mC]*eT*eT*e[5mC]*e[5mC]*dA*dA*d[5mC]*dA*d[5mC]*dA*dT*dG*d[5mC]*dT*e[5mC]*eT*eG*e[5mC]*eA) [compound 771799] | 0 | 8 | 28 | 48 | > 20 | 57 |  |  |  | 
771808 (antisense e[5mC]*e[5mC]*e[5mC]*e[5mC]*eA*dA*dA*dG*dT*d[5mC]*d[5mC]*dA*d[5mC]*dG*d[5mC]*eT*e[5mC]*eA*eT*eG) [compound 771808] | 10 | 0 | 23 | 66 | 16 |  |  |  | 54 | 32
771815 (antisense e[5mC]*eT*e[5mC]*e[5mC]*e[5mC]*dT*dT*dT*dT*d[5mC]*dA*d[5mC]*dT*dG*d[5mC]*eT*e[5mC]*e[5mC]*eA*e[5mC]) [compound 771815] | 0 | 0 | 22 | 46 | > 20 | 70 |  |  |  | 
771820 (antisense eG*eG*eT*e[5mC]*eA*dA*dA*d[5mC]*dT*dT*dG*dT*dG*dG*dT*eA*eA*eA*eA*eT) [compound 771820] | 3 | 3 | 7 | 7 | > 20 | 29 |  |  |  | 
771821 (antisense eG*eT*eT*e[5mC]*e[5mC]*dT*dT*dA*dT*dA*dG*dA*dT*dT*dA*eT*e[5mC]*e[5mC]*eA*eA) [compound 771821] | 0 | 9 | 27 | 46 | > 20 |  |  | 60 |  | 
771822 (antisense e[5mC]*eA*e[5mC]*e[5mC]*eA*dA*dA*dA*d[5mC]*dA*dA*dG*dT*dG*dT*e[5mC]*eT*eA*e[5mC]*e[5mC]) [compound 771822] | 0 | 0 | 30 | 45 | > 20 | 44 |  |  |  | 
771825 (antisense e[5mC]*eT*e[5mC]*eT*e[5mC]*dA*dT*dT*dT*d[5mC]*dT*dG*dG*dA*dA*e[5mC]*e[5mC]*e[5mC]*eA*e[5mC]) [compound 771825] | 15 | 29 | 17 | 66 | 15 |  |  |  |  | 76
771831 (antisense e[5mC]*eG*eA*eT*e[5mC]*dA*dT*dT*dT*dT*d[5mC]*dT*dA*d[5mC]*dA*e[5mC]*e[5mC]*eT*eT*eT) [compound 771831] | 0 | 13 | 32 | 51 | 16 | 66 |  |  |  | 
771836 (antisense eT*eG*eT*eT*eG*dA*dG*dG*dA*d[5mC]*dT*d[5mC]*d[5mC]*d[5mC]*d[5mC]*eA*eG*e[5mC]*e[5mC]*eA) [compound 771836] | 6 | 25 | 22 | 41 | > 20 | 28 |  |  |  | 
771838 (antisense eG*eA*eA*e[5mC]*eT*d[5mC]*d[5mC]*dT*dG*d[5mC]*dA*dG*dG*dA*dT*eG*eA*eG*eG*eG) [compound 771838] | 0 | 24 | 26 | 43 | > 20 | 53 |  |  |  | 
771849 (antisense e[5mC]*eT*eA*eG*eG*d[5mC]*dT*dG*dG*dT*d[5mC]*dA*d[5mC]*dT*dT*e[5mC]*e[5mC]*eA*e[5mC]*eT) [compound 771849] | 25 | 0 | 10 | 35 | > 20 |  |  |  |  | 66
771850 (antisense eT*e[5mC]*e[5mC]*e[5mC]*eA*d[5mC]*dT*dT*d[5mC]*dT*d[5mC]*d[5mC]*dT*d[5mC]*dT*eG*eG*e[5mC]*eT*eG) [compound 771850] | 0 | 8 | 20 | 44 | > 20 |  |  |  |  | 58
771869 (antisense eA*eG*e[5mC]*e[5mC]*eA*dA*dG*dT*dG*dT*d[5mC]*d[5mC]*dA*dT*d[5mC]*eA*eA*eG*e[5mC]*eA) [compound 771869] | 10 | 0 | 24 | 43 | > 20 |  |  | 62 |  | 
771885 (antisense e[5mC]*eA*eA*eG*eT*d[5mC]*dT*d[5mC]*dT*dT*dA*d[5mC]*d[5mC]*dT*d[5mC]*eA*e[5mC]*e[5mC]*e[5mC]*eA) [compound 771885] | 0 | 4 | 20 | 45 | > 20 |  |  | 60 |  | 
771891 (antisense e[5mC]*eT*e[5mC]*e[5mC]*e[5mC]*dA*dA*dG*d[5mC]*d[5mC]*dT*dA*d[5mC]*dA*dT*eA*eT*eT*eT*e[5mC]) [compound 771891] | 0 | 0 | 10 | 33 | > 20 | 56 | 65 |  |  | 
771900 (antisense eA*eT*eG*e[5mC]*e[5mC]*d[5mC]*dA*d[5mC]*d[5mC]*dA*dG*dT*d[5mC]*dT*dT*e[5mC]*e[5mC]*eT*eG*eA) [compound 771900] | 0 | 11 | 8 | 29 | > 20 | 32 |  |  |  | 
